Assay results: paper PMC7686313, “Phase 1 study of mTORC1/2 inhibitor sapanisertib (TAK-228) in advanced solid tumours, with an expansion phase in renal, endometrial or bladder cancer” (British Journal of Cancer, 2020)
Where two headings read alike, the source gives them in different places.

Assays:
[1] = Plasma pharmacokinetics (LC-MS/MS); type: in vivo, human; conditions: human, plasma, oral; for AUC(0-t): read-out: AUC0–24h [%CV]
Description: Peripheral blood was collected serially to quantify plasma levels of sapanisertib for PK analysis via validated liquid chromatography tandem mass spectrometry with an assay range of 1–1000 ng/mL (MicroConstants, San Diego, CA), during both dose-escalation and expansion phases. Blood samples were collected before each dose and 0.5, 1, 2, 4, 8 and 24 h after dosing on cycle 1, day 1 and cycle 2, day 1, in the dose-escalation phase. In the expansion phase, samples were collected predose and 2, 4 and 6 h postdose on cycle 1, day 1, and then predose and 2 h postdose on day 8, 15 or 22 of cycle 1.

[2] = system: renal cell carcinoma (RCC); assay: Tumour response according to RECIST v1.1, expansion phase, RCC; type: in vivo, human
Description: Patients could be considered for enrolment in one of three disease-specific cohorts: (1) advanced or recurrent endometrial adenocarcinoma with disease progression following ≥1 prior chemotherapy regimen; (2) advanced/metastatic urothelial cancer (carcinoma of the bladder, ureter and/or renal pelvis), progressive after ≥1 prior therapy in the metastatic/unresectable setting; (3) advanced RCC after failure of ≥1 prior antivascular endothelial growth factor therapy with no prior TORC1 inhibitor therapy, or progressed on treatment with TORC1 inhibitor therapy.

[3] = 10 mg, cycle 2, day 1, QDx5dQW 10 mg
[4] = 12 mg, cycle 2, day 1, QDx3dQW 12 mg
[5] = 15 mg, cycle 2, day 1, QW 15 mg
[6] = 16 mg, cycle 2, day 1, QDx3dQW 16 mg
[7] = 30 mg, cycle 2, day 1, QW 30 mg
[8] = 40 mg, cycle 2, day 1, QW 40 mg
[9] = expansion RCC TORC1 failure (n = 23)
[10] = expansion RCC TORC1 naïve (n = 18)

SMILES: CC(C)n1nc(-c2ccc3oc(N)nc3c2)c2c(N)ncnc21 [Sapanisertib]
- Tmax ([1]; 10 mg, cycle 1, day 1, 10 mg, read-out: Tmax, median): 2.8 h
- half-life ([1]; 10 mg, cycle 1, day 1, 10 mg, read-out: t½ (converted)): 6.4 h
- Cmax [1, 3]: 57 ng/mL
- AUC(0-t) [1, 3]: 366 ng·h/mL
- half-life ([1]; 10 mg, cycle 2, day 1, QDx5dQW 10 mg, read-out: t½ (converted)): 5.7 h
- Tmax ([1]; 10 mg, cycle 2, day 1, QW 10 mg, read-out: Tmax, median): 2.9 h
- Cmax ([1]; 12 mg, cycle 1, day 1, 12 mg): 99.5 ng/mL
- AUC(0-t) ([1]; 12 mg, cycle 1, day 1, 12 mg): 730 ng·h/mL
- half-life ([1]; 12 mg, cycle 1, day 1, 12 mg, read-out: t½ (converted)): 7.4 h
- Cmax [1, 4]: 113 ng/mL
- AUC(0-t) [1, 4]: 707 ng·h/mL
- Tmax ([1]; 12 mg, cycle 2, day 1, QDx3dQW 12 mg, read-out: Tmax, median): 3.7 h
- half-life ([1]; 12 mg, cycle 2, day 1, QDx3dQW 12 mg, read-out: t½ (converted)): 4.9 h
- Cmax ([1]; 13 mg, cycle 1, day 1, 13 mg): 93.6 ng/mL
- AUC(0-t) ([1]; 13 mg, cycle 1, day 1, 13 mg): 953 ng·h/mL
- Tmax ([1]; 13 mg, cycle 1, day 1, 13 mg, read-out: Tmax, median): 2.1 h
- half-life ([1]; 13 mg, cycle 1, day 1, 13 mg, read-out: t½ (converted)): 8.7 h
- Cmax ([1]; 15 mg, cycle 1, day 1, 15 mg): 56.7 ng/mL
- AUC(0-t) ([1]; 15 mg, cycle 1, day 1, 15 mg): 518 ng·h/mL
- half-life ([1]; 15 mg, cycle 1, day 1, 15 mg, read-out: t½ (converted)): 9.4 h
- Cmax [1, 5]: 64.9 ng/mL
- AUC(0-t) [1, 5]: 604 ng·h/mL
- Cmax ([1]; 16 mg, cycle 1, day 1, 16 mg): 66.7 ng/mL
- AUC(0-t) ([1]; 16 mg, cycle 1, day 1, 16 mg): 689 ng·h/mL
- Tmax ([1]; 16 mg, cycle 1, day 1, 16 mg, read-out: Tmax, median): 2.1 h
- half-life ([1]; 16 mg, cycle 1, day 1, 16 mg, read-out: t½ (converted)): 7 h
- Cmax [1, 6]: 92.1 ng/mL
- AUC(0-t) [1, 6]: 744 ng·h/mL
- Tmax ([1]; 16 mg, cycle 2, day 1, QDx3dQW 16 mg, read-out: Tmax, median): 2.1 h
- Cmax ([1]; 20 mg, cycle 1, day 1, 20 mg): 154 ng/mL
- AUC(0-t) ([1]; 20 mg, cycle 1, day 1, 20 mg): 1260 ng·h/mL
- Tmax ([1]; 20 mg, cycle 1, day 1, 20 mg, read-out: Tmax, median): 2.1 h
- half-life ([1]; 20 mg, cycle 1, day 1, 20 mg, read-out: t½ (converted)): 6.5 h
- Tmax ([1]; 20 mg, cycle 2, day 1, QW 20 mg, read-out: Tmax, median): 4 h
- Cmax ([1]; 30 mg, cycle 1, day 1, 30 mg): 162 ng/mL
- AUC(0-t) ([1]; 30 mg, cycle 1, day 1, 30 mg): 1080 ng·h/mL
- half-life ([1]; 30 mg, cycle 1, day 1, 30 mg, read-out: t½ (converted)): 5.9 h
- Cmax [1, 7]: 133 ng/mL
- AUC(0-t) [1, 7]: 1120 ng·h/mL
- Tmax ([1]; 30 mg, cycle 2, day 1, QW 30 mg, read-out: Tmax, median): 4 h
- half-life ([1]; 30 mg, cycle 2, day 1, QW 30 mg, read-out: t½ (converted)): 5.7 h
- Cmax ([1]; 40 mg, cycle 1, day 1, 40 mg): 172 ng/mL
- AUC(0-t) ([1]; 40 mg, cycle 1, day 1, 40 mg): 1640 ng·h/mL
- Tmax ([1]; 40 mg, cycle 1, day 1, 40 mg, read-out: Tmax, median): 2.4 h
- half-life ([1]; 40 mg, cycle 1, day 1, 40 mg, read-out: t½ (converted)): 7.6 h
- Cmax [1, 8]: 232 ng/mL
- AUC(0-t) [1, 8]: 2220 ng·h/mL
- half-life ([1]; 40 mg, cycle 2, day 1, QW 40 mg, read-out: t½ (converted)): 6.4 h
- Tmax ([1]; range across all doses, read-out: Median Tmax): 1 to 2.8 h
- half-life ([1]; range, 2–40 mg dose range, read-out: Mean plasma half-life): 5.9 to 9.4 h
- Best overall response CR [2, 9]: 0 n (%)
- Best overall response PD [2, 9]: 7 (30) n (%)
- Best overall response PR [2, 9]: 2 (9) n (%)
- Best overall response SD < 6 months [2, 9]: 9 (39) n (%)
- Best overall response SD ≥ 6 months [2, 9]: 5 (22) n (%)
- CBR (CR + PR + SD ≥ 6 months) [2, 9]: 7 (30) n (%)
- ORR (CR + PR) [2, 9]: 2 (9) n (%)
- Best overall response CR [2, 10]: 1 (6) n (%)
- Best overall response PD [2, 10]: 5 (28) n (%)
- Best overall response PR [2, 10]: 3 (17) n (%)
- Best overall response SD < 6 months [2, 10]: 7 (39) n (%)
- Best overall response SD ≥ 6 months [2, 10]: 1 (6) n (%)
- CBR (CR + PR + SD ≥ 6 months) [2, 10]: 5 (28) n (%)
- ORR (CR + PR) [2, 10]: 4 (22) n (%)
- Objective responses persisting for > 16 months ([2]; expansion phase): Four of the seven
- Duration of complete response (CR) ([2]; expansion, one patient with TORC1 inhibitor−naïve RCC receiving 40 mg QW): 16 months
